Columns and labels:
[1] = target: T1, Human Indoleamine 2,3-dioxygenase (IDO) (Homo sapiens, UniProt P14902); test: Human IDO enzymatic assay (kynurenine level); assay type: biochemical; settings: 6 nM IDO, 10 μM L-Trp; geometric mean; read-out: IDO1 GMean: IC50 (μM) (Biochemical Assay)
T1 construct: His tag (N); made in house; host or cells: E. coli
Summary of the method: (§1)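 Kynurenine formed is measured after TCA quench and 50 °C hydrolysis, with % inhibition against full-reaction and no-enzyme controls (5% DMSO). IDO: 6 nM enzyme, 10 μM L-Trp, 5 μM methylene blue, 20 min; TDO: 1 nM, 350 μM L-Trp, 0.4 μM methylene blue, 70 min; both pH 6.5, room temp, E. coli-expressed His-tagged.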

[2] = target: T2, Human Tryptophan 2,3-dioxygenase (TDO) (Homo sapiens, UniProt P48775); test: Human TDO enzymatic assay (kynurenine level); assay type: biochemical; settings: 1 nM TDO, 350 μM L-Trp; geometric mean; read-out: TDO GMean: IC50 (μM) (Biochemical Assay)
T2 construct: His tag (N); made in house; host or cells: E. coli
T2 sequence (P48775 whole entry): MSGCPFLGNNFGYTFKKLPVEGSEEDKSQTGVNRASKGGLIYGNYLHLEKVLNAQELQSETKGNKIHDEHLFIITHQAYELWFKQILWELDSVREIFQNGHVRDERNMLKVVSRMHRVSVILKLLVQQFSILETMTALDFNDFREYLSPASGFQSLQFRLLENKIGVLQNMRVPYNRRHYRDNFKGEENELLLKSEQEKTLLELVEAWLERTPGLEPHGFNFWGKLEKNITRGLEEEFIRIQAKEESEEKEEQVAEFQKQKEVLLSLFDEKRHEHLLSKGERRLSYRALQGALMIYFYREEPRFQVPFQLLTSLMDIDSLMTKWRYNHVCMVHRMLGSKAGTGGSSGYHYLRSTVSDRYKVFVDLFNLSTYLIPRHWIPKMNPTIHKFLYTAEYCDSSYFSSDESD
Summary of the method: as §1

[3] = target: T3, human IDO (IDO1-expressing HEK293 cells) (Homo sapiens, UniProt P14902); test: Cell based kynurenine assay, IDO1-expressing HEK293 cell clones; settings: IDO1-expressing HEK293 cells, 24 hours incubation; geometric mean; read-out: HEK293 IDO1 Kynurenine GMean IC50 (μM) (Cellular Assay)
T3 construct: expressed in transfected cells
T3 sequence (P14902 whole entry): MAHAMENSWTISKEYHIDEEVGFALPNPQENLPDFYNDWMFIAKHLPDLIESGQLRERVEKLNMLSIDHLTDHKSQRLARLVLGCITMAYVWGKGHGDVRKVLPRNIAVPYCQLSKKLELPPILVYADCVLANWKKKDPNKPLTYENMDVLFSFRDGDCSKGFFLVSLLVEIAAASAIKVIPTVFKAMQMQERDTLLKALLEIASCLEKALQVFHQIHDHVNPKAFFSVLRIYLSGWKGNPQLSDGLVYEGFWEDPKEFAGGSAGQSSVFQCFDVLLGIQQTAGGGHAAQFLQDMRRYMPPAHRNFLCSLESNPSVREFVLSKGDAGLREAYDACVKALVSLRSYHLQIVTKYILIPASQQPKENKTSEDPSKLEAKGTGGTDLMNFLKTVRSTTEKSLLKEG
Summary of the method: (§2)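 Steps: seed IDO1- or TDO-expressing HEK293 cells at 2.5×10^4 per well; add compound dilutions; incubate 24 h; transfer supernatant and determine kynurenine; derive IC50 via nonlinear regression of percent inhibition.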

[4] = target: T4, human TDO (TDO-expressing HEK293 cells) (Homo sapiens, UniProt P48775); test: Cell based kynurenine assay, TDO-expressing HEK293 cell clones; settings: TDO-expressing HEK293 cells, 24 hours incubation; geometric mean; read-out: HEK293 TDO Kynurenine GMean IC50 (μM) (Cellular Assay)
T4 construct: expressed in transfected cells
T4 sequence (P48775 whole entry): as the sequence (P48775 whole entry) above
Summary of the method: as §2

Measured: IC50

T1 sequence (P14902 whole entry): as the sequence (P14902 whole entry) above

CC(C)(C1CCN(S(=O)(=O)c2ccccc2)CC1)C(O)c1cc(Cl)cc2cn[nH]c12 (centres unmarked) [Compound P-0309, 1-(5-chloro-1H-indazol-7-yl)-2-methyl-2-(1-(phenylsulfonyl)piperidin-4-yl)propan-1-ol]
0.0001 to 10 µM: all assays above

CC(=O)N1CCC(C(C)(C)C(O)c2cc(Cl)cc3cn[nH]c23)CC1 (centres unmarked) [Compound P-0310, 1-(4-(1-(5-chloro-1H-indazol-7-yl)-1-hydroxy-2-methylpropan-2-yl)piperidin-1-yl)ethan-1-one]
0.0001 to 10 µM: all assays above

CCC(=O)N1CCC(C(C)(C)C(O)c2cc(Cl)cc3cn[nH]c23)CC1 (centres unmarked) [Compound P-0311, 1-(4-(1-(5-chloro-1H-indazol-7-yl)-1-hydroxy-2-methylpropan-2-yl)piperidin-1-yl)propan-1-one]
0.0001 to 10 µM: all assays above

CC(C)(C1CCN(C(=O)C2CC2)CC1)C(O)c1cc(Cl)cc2cn[nH]c12 (centres unmarked) [Compound P-0312, (4-(1-(5-chloro-1H-indazol-7-yl)-1-hydroxy-2-methylpropan-2-yl)piperidin-1-yl)(cyclopropyl) methanone]
0.0001 to 10 µM: all assays above

CNC(=O)N1CCC(C(C)(C)C(O)c2cc(Cl)cc3cn[nH]c23)CC1 (centres unmarked) [Compound P-0314, 4-(1-(5-chloro-1H-indazol-7-yl)-1-hydroxy-2-methylpropan-2-yl)-N-methylpiperidine-1-carboxamide]
0.0001 to 10 µM: all assays above

CC(C)NC(=O)N1CCC(C(C)(C)C(O)c2cc(Cl)cc3cn[nH]c23)CC1 (centres unmarked) [Compound P-0315, 4-(1-(5-chloro-1H-indazol-7-yl)-1-hydroxy-2-methylpropan-2-yl)-N-isopropylpiperidine-1-carboxamide]
0.0001 to 10 µM: all assays above

CC(C)(C1CCN(C(=O)NC2CCCC2)CC1)C(O)c1cc(Cl)cc2cn[nH]c12 (centres unmarked) [Compound P-0316, 4-(1-(5-chloro-1H-indazol-7-yl)-1-hydroxy-2-methylpropan-2-yl)-N-cyclopentylpiperidine-1-carboxamide]
0.0001 to 10 µM: all assays above

CC(C)(C1CCN(C(=O)Nc2ccccc2)CC1)C(O)c1cc(Cl)cc2cn[nH]c12 (centres unmarked) [Compound P-0317, 4-(1-(5-chloro-1H-indazol-7-yl)-1-hydroxy-2-methylpropan-2-yl)-N-phenylpiperidine-1-carboxamide]
0.0001 to 10 µM: all assays above

CN1CCC(C(C)(C)C(O)c2cc(Cl)cc3cn[nH]c23)CC1 (centres unmarked) [Compound P-0318, 1-(5-chloro-1H-indazol-7-yl)-2-methyl-2-(1-methylpiperidin-4-yl)propan-1-ol]
0.0001 to 10 µM: all assays above

CC(C)(C1CCN(C2CC2)CC1)C(O)c1cc(Cl)cc2cn[nH]c12 (centres unmarked) [Compound P-0319, 1-(5-chloro-1H-indazol-7-yl)-2-(1-cyclopropylpiperidin-4-yl)-2-methylpropan-1-ol]
0.0001 to 10 µM: all assays above

CC(C)(C1CCN(C2CCCC2)CC1)C(O)c1cc(Cl)cc2cn[nH]c12 (centres unmarked) [Compound P-0320, 1-(5-chloro-1H-indazol-7-yl)-2-(1-cyclopentylpiperidin-4-yl)-2-methylpropan-1-ol]
0.0001 to 10 µM: all assays above

COC(=O)N1CCC(C(C)(C)C(O)c2cc(Cl)cc3cn[nH]c23)CC1 (centres unmarked) [Compound P-0321, methyl 4-(1-(5-chloro-1H-indazol-7-yl)-1-hydroxy-2-methylpropan-2-yl)piperidine-1-carboxylate]
0.0001 to 10 µM: all assays above

CCOC(=O)N1CCC(C(C)(C)C(O)c2cc(Cl)cc3cn[nH]c23)CC1 (centres unmarked) [Compound P-0322, ethyl 4-(1-(5-chloro-1H-indazol-7-yl)-1-hydroxy-2-methylpropan-2-yl)piperidine-1-carboxylate]
0.0001 to 10 µM: all assays above

CC(C)OC(=O)N1CCC(C(C)(C)C(O)c2cc(Cl)cc3cn[nH]c23)CC1 (centres unmarked) [Compound P-0323, isopropyl 4-(1-(5-chloro-1H-indazol-7-yl)-1-hydroxy-2-methylpropan-2-yl)piperidine-1-carboxylate]
0.0001 to 10 µM: all assays above

CC(C)(C1CCN(S(N)(=O)=O)CC1)C(O)c1cc(Cl)cc2cn[nH]c12 (centres unmarked) [Compound P-0324, 4-(1-(5-chloro-1H-indazol-7-yl)-1-hydroxy-2-methylpropan-2-yl)piperidine-1-sulfonamide]
0.0001 to 10 µM: all assays above

CC(C)(C1CCN(C(N)=O)CC1)C(O)c1cc(Cl)cc2cn[nH]c12 (centres unmarked) [Compound P-0325, 4-(1-(5-chloro-1H-indazol-7-yl)-1-hydroxy-2-methylpropan-2-yl)piperidine-1-carboxamide]
0.0001 to 10 µM: all assays above

COC(=O)C12CCC(C(O)c3cc(Cl)cc4cn[nH]c34)(CC1)CC2 (centres unmarked) [Compound P-0326, methyl 4-((5-chloro-1H-indazol-7-yl)(hydroxy)methyl)bicyclo [2.2.2]octane-1-carboxylate]
0.0001 to 10 µM: all assays above

O=C(O)C12CCC(C(O)c3cc(Cl)cc4cn[nH]c34)(CC1)CC2 (centres unmarked) [Compound P-0327, 4-((5-chloro-1H-indazol-7-yl)(hydroxy)methyl)bicyclo [2.2.2]octane-1-carboxylic acid]
0.0001 to 10 µM: all assays above

OCC12CCC(C(O)c3cc(Cl)cc4cn[nH]c34)(CC1)CC2 (centres unmarked) [Compound P-0328, (5-chloro-1H-indazol-7-yl)(4-(hydroxymethyl)bicyclo[2.2.2]octan-1-yl)methanol]
0.0001 to 10 µM: all assays above

COC(=O)N1CC2CCC(C1)C2CC(O)c1cc(Cl)cc2cn[nH]c12 (centres unmarked) [Compound P-0329, methyl 8-(2-(5-chloro-1H-indazol-7-yl)-2-hydroxyethyl)-3-azabicyclo [3.2.1]octane-3-carboxylate]
0.0001 to 10 µM: all assays above

CNS(=O)(=O)N1CCC(C(F)(F)C(O)c2cc(Cl)cc3cn[nH]c23)CC1 (centres unmarked) [Compound P-0330, 4-(2-(5-chloro-1H-indazol-7-yl)-1,1-difluoro-2-hydroxyethyl)-N-methylpiperidine-1-sulfonamide]
0.0001 to 10 µM: all assays above

CCNS(=O)(=O)N1CCC(C(F)(F)C(O)c2cc(Cl)cc3cn[nH]c23)CC1 (centres unmarked) [Compound P-0331, 4-(2-(5-chloro-1H-indazol-7-yl)-1,1-difluoro-2-hydroxyethyl)-N-ethylpiperidine-1-sulfonamide]
0.0001 to 10 µM: all assays above

CC(C)NS(=O)(=O)N1CCC(C(F)(F)C(O)c2cc(Cl)cc3cn[nH]c23)CC1 (centres unmarked) [Compound P-0332, 4-(2-(5-chloro-1H-indazol-7-yl)-1,1-difluoro-2-hydroxyethyl)-N-isopropylpiperidine-1-sulfonamide]
0.0001 to 10 µM: all assays above
